# Results published in US20080293699A1, “Inhibitors of thapsigargin-induced cell death” (priority 2007, published 2008).
# “Also recorded” adds a separate entry of the source. Read-outs that look alike come from different tables or passages of the source.
# Tests used:
# Assay type in all cases: cell-based, rat
# [1] = tested on: CSM14.1 cells; assay: Annexin V staining viability assay (flow cytometry), thapsigargin-treated undifferentiated CSM14.1 cells; settings: hit compounds 25 μM, TG 15 μM
# Method: Undifferentiated CSM14.1 cells were cultured as for FIG. 16. The next day, DMSO (a, b) (1% final volume), 100 μM Salubrinal (c, d) or 25 μM of hit compounds (1% final DMSO) was added. After two hrs, 15 μM TG was added to all wells except a and c. The plates were returned to culture for 24 hrs, then cells were recovered by trypsinization, transferred to 1.5 ml microcentrifuge tubes, and resuspended in 0.5 mL of Annexin V-binding solution. The percentage of annexin V-negative cells was determined by flow-cytometry (y-axis). Treatments and compounds were the same as in FIG. 16.
# One method we have employed, for example, for confirming protection against TG-induced killing uses fluorochrome-conjugated annexin V staining with flow-cytometry analysis to evaluate the percentage cell viability by a method that is independent of the ATP content assay.
# FIGS. 16 and 17 show the results of a secondary assay for evaluating the cytoprotective activity of the compounds. In FIG. 16, undifferentiated CSM14.1 cells were cultured at 10^4 cells per well of 24-well plates (Greiner Bio One). The next day, DMSO (a, b) (1% final volume), 100 μM Salubrinal (c, d) or 25 μM of hit compounds (1% final DMSO) was added. After two hrs, 15 μM TG was added to all wells except a and c. A conventional ATP assay was performed to measure survival rate. In FIG. 17 undifferentiated CSM14.1 cells were cultured at 10^4 cells per well of 24-well plates (Greiner Bio One). The next day, DMSO (a, b) (1% final volume), 100 μM Salubrinal (c, d) or 25 μM of hit compounds (1% final DMSO) was added. After two hrs, 15 μM TG was added to all wells except a and c. […] The percentage of annexin V-negative cells was determined by flow-cytometry (y-axis), using a FACSort instrument (Beckton-Dickinson). […]
# 7) The percentage of annexin V-negative cells was determined by flow-cytometry (y-axis), using a FACSort analysis facility in Burnham (Beckton & Dickinson)
# [2] = tested on: CSM14.1 cells; assay: Primary HTS assay: ATP content (ATPlite) of undifferentiated CSM14.1 cells challenged with thapsigargin; settings: for IC50: thapsigargin-induced death of undifferentiated CSM14.1, ATP content; for Protection against TG-induced cell death by Salubrinal: 100 μM Salubrinal, 15 μM TG, undifferentiated CSM14.1, ATP
# Text: For convenience, and because transient reductions in temperature that might be associated with large screening experiments could restore Large T activity, we elected to develop our HTS using undifferentiated CSM14.1 cells, with the plan to then confirm hits using differentiated cells. For monitoring cell death, we used a commercially available bioluminescence reagent that determines intracellular ATP content, without requirement for complicated cell processing steps (ATPlite, Perkin Elmer). Thus, ATP was used as a surrogate indicator of cell survival for the primary assay.
# Undifferentiated or differentiated CSM14.1 cells were plated at a density of 3,000 cells/well in 40 μL DMEM medium (containing 10% serum, 1 mM L-glutamine, and antibiotics) in 96 well flat-bottom microtiter plates composed of polystrene (Greiner Bio One, polystyrene, white wall, flat bottom, lumitrac, high binding). After overnight incubation at 32° C., DMSO (0.5% v/v) or 100 uM Salubrinal (Sal) in DMSO was delivered. After 2 hrs, 5 uL of a stock solution of 150 uM TG in DMEM medium containing 0.75% (v:v) DMSO to achieve a final concentration of approximately 15 uM. After culturing for 24 hrs, cellular ATP content was measured by addition of 20 uL per well of ATPlite solution (Perkin-Elmer), and then the plates were incubated for three minutes at room temperature, before reading with a Microplate Luminometer (BD Pharmingen Moonlight model 3096).
# To determine the reproducibility of the ATP content assay, we prepared a 96-well plate in which half the wells received TG plus DMSO (assay minimum) and half received TG plus Salubrinal (assay maximum), then performed the ATP content studies using undifferentiated CSM14.1 cells (FIG. 6). CSM14.1 cells were cultured overnight at 3,000 cells per well in 96-well flat-bottom plates, then either DMSO (0.5% final concentration) or Salubrinal (100 μM) in DMSO (0.5% final concentration) was added to half the well (48 each). After two hrs, TG was added to all wells (15 μM final). Cells were cultured for 24 hrs, then the ATP content was measured using the ATPlite luminogenic assay. We then adapted this assay to the high-throughput environment, using a Biomex™ FX liquid handler for automated dispensing of assay components into microwells of 96-well plates. First, undifferentiated CSM14.1 cells were grown at 32° C. in DMEM medium supplemented with 10% fetal bovine serum (FBS), 1% penicillin/streptomycin, and 1% L-glutamine in 150 mm×25 mm polystyrene culture dishes to produce approximately 3×10^6 cells. Second, CSM14.1 cells were recovered from cultures by trypsinization when at 80-90% confluence, and suspended at 7.5×10^4 cells/mL in DMEM medium containing 2% FBS, 1 mM L-glutamine, and antibiotics 100 IU penicillin 100 μg/ml streptomycin. Third, the cell suspension was then delivered at 40 μL per well of 96-well plastic microtiter plates (Greiner Bio One, polystyrene, white wall, flat bottom, lumitrac, high binding, cat #655074), and the plates were cultured overnight at 32° C. in a humidified atmosphere in 95% air: 5% CO2. Fourth, using the automated liquid handler, 5 μL of test compounds in 10% DMSO were added to wells in columns 2-11 of the 96-well plates (leaving columns 1 and 12 intact) to achieve an approximate final concentration of 15 μg/mL test compound and a final concentration of 1% DMSO. Fifth, 5 μL of 1 mM Salubrinal in a solution of 10% DMSO:90% DMEM was added to wells of column 1/rows A-D of each plate, while 5 μL of 10% DMSO:90% DMEM solution was added to wells corresponding to column 1/rows E-H and to all wells in column 12. Sixth, the plates were returned to culture.
# [3] = tested on: CSM 14.1 cells; assay: MTS assay of thapsigargin-induced death of CSM 14.1 cells; settings: salubrinal two hours before 7.5 mM thapsigargin, 18 hours
# Method: CSM 14.1 cells were plated at a density of 3×10^3 cells per well in 96-well plates and incubated overnight. The indicated concentration of salubrinal was pre incubated with cells for two hours, followed by […] thapsigargin treatment. 18 hours later, cell death rates were measured by the MTS assay. For the MTS assay, the CellTiter 960 Aqueous Non-radioactive Cell Proliferation Assay kit (Promega) was used. The reaction-ready solution was made according to the manufacturer's protocol, and each treated well of the 96-well plate was incubated with 20 μl of the reaction-ready solution. The plates were incubated humidified cell incubator at 37° C. with 5% CO2 for two hours, and the absorbance of each well was read by an ELISA plate reader at 490 nm wavelength. To determine the background level of absorbance, the same volume of culture media (DMEM without cells) was incubated with MTS solution. The background value was subtracted from the value of each well. Background values from the control treatment (no TG, no Sal) wells were set as 100% survival, and the experimental wells' values were evaluated as the percentage of the control value.
# [4] = tested on: differentiated CSM14.1 cells; assay: ATP content assay, thapsigargin-treated differentiated CSM14.1 cells; settings: compound 25 μM with 10 μM thapsigargin, Salubrinal 100 μM
# Method: Of the 26 compounds shown in Table 9, 16 were subsequently confirmed to protect differentiated CSM14.1 cells from TG-induced cell death. For these assays, CSM14.1 cells were differentiated by culture in 2% FBS for 7 days at non-permissive temperature of 39° C. […] CSM14.1 cells were plated at 1,500 cells per well in 96-well plates, and cultured overnight at 32° C. (permissive temperature; FIG. 14, left) or at 39° C. (non-permissive temperature, FIG. 14, right) for 7 days. […] ATP content was measured, and data were expressed as a percentage of control cells treated only with 1% DMSO (mean ±SD; n=3). Two percent FBS was used during differentiation, but all assays were performed in 10% FBS.
# For PC12, cells were stimulated with 20 ng/ml NGF for five days; for C17.2, cells were stimulated with serum reduction, and 1% N2 incubation for three days; for CSM14.1, cells were cultured at 39° C. for 5-7 days.
# CSM14.1 cells were plated at 1,500 cells per well in 96-well plates and cultured at 39° C. (non-permissive temperature) for 7 days. […] ATP content was measured and data were expressed as a percentage of control cells treated with only 1% DMSO.
# [5] = tested on: CSM14.1 cells; assay: Tunicamycin-induced cell death of CSM14.1 cells; settings: 100 μm salubrinal; stated in the description of FIG. 13 (tunicamycin, annexin V flow cytometry)
# Method: CSM 14.1 cells were plated at a density of 3×10^3 cells/well in 96-well plates and incubated overnight. Cells were pre-incubated with 25 μM of each compound or 100 μM salubrinal for two hours, followed by […] tunicamycin treatment. 72 hours later, cell death rates were measured by flow cytometry analysis. Annexin V-negative population was considered as survivors. In FIG. 13, the white column represents 0.5% DMSO control showing 24% of survival, and the gray column 100 μM salubrinal. Black columns are data from each compound (25 μM) (compound numbers refer to the compounds in Table 9).
# For the experiments shown in FIG. 18, undifferentiated CSM 14.1 cells were plated at 3,000 cells per well in 96-well plates (for the ATP assay) or at 1×10^4 cells per well in 24-well plates (for flow cytometry). The next day, cells were treated with DMSO (0.5%) or hit compounds 25 μM of a compound with 0.5% DMSO final concentration) for two hours, followed by treatment with various cell death-inducing reagents, including 15 μM Thapsigargin (TG) for 24 hrs, 10 μg/mL tunicamycin (TU) for 72 hrs, 2.5 μM staurosporine (STS) for 24 hrs, 50 μM VP16 for 48 hrs, or 30 ng/mL TNF plus 10 μg/mL cyclohexamide (CHX) for 24 hrs. Cellular ATP content was measured for staurosporine samples and TNF/CHX samples, normalizing data relative to cells treated with DMSO alone (the control) and presenting as a percentage of control. For measuring cell death resulting from treatment with tunicamycin and VP16, flow cytometry was used. All assays were performed in triplicate (mean ±SD).
# [6] = tested on: CSM14.1 cells; assay: Pilot dose-response of thapsigargin on undifferentiated CSM14.1 cells (ATP content, vital dye exclusion)
# Method: In pilot experiments, undifferentiated CSM14.1 cells were plated at various densities in wells of a 96 well plate, cultured overnight, then the ATP content of the cells was measured using the luminogenic ATPlite reagent (FIG. 4A). We also performed dose-response experiments for thapsigargin (FIG. 4B) by culturing CSM14.1 cells at 3,000 cells per well overnight, then treating the cells with various concentrations of TG or Sal and cultured for 18 hrs before determining ATP content (mean ±SD; n=3) (FIG. 4B). Similarly, we performed dose response experiments for Salubrinal (Sal). Cells were plated and cultured as above, then treated with various concentrations of Salubrinal, followed two hrs later by 15 uM TG. Cells were cultured for 18 hrs, then ATP content was determined (mean ±SD; n=3) (FIG. 4C). […] As a control, we employed Salubrinal, which was reported to block ER stress-induced cell death (Boyce et al., Science, 307:935-939, 2005).
compound,measurement,setting,value
O=C(CN1CC[n+]2c(-c3cccs3)csc21)c1ccccc1.[Br-] [Compound 5979207],Protection against TG-induced cell death measured by annexin V staining,[1],less active
same,Activity against thapsigargin-induced cell death / cell protection,[2]; cell death assay used for primary screening,potent inhibitor of cell death
COc1cccc(CN2CCN(C(=O)c3ccc(-c4ccccc4)cc3)CC2)c1 [Compound 5998734],Protection against TG-induced cell death measured by annexin V staining,[1],less active
same,IC50,"[2]; first assay, read-out: IC50 (μM), first value",20 ± 0.493 µM
same,IC50,"[2]; second assay (value in bold), read-out: IC50 (μM), value from a second assay",14.6 ± 26.6 µM
"O=C(/C=C/c1ccccc1)NC(NC(=S)Nc1cccc2cccnc12)C(Cl)(Cl)Cl (stereo not drawn) [Salubrinal, reference compound]","Inhibition of thapsigargin-induced cell death, MTS assay",[3],less efficiently than our hit compounds
same,Protection of differentiated CSM14.1 cells from thapsigargin-induced death,[4],protects
same,Inhibition of tunicamycin-induced cell death,[5],75%
same,Protection against TG-induced cell death by Salubrinal,[2],significantly protected; also recorded: protects
same,Protection against TG-induced cell death by Salubrinal,[2]; listed as Sal,protects
C/C=C(/C)C(=O)O[C@H]1C(C)=C2[C@H]([C@@H]1OC(=O)CCCCCCC)[C@@](C)(OC(C)=O)C[C@H](OC(=O)CCC)[C@@]1(O)[C@H]2OC(=O)[C@@]1(C)O [thapsigargin],reduction in ATP per well,"[6]; 15 μM thapsigargin, 3,000 cells per well, 18 hrs",~95%
same,cell killing,"[6]; 15 μM thapsigargin, vital dye exclusion assays",~95%
